Measured values as given in US9055743B2, “Alpha, beta-unsaturated imines” (BAYER INTELLECTUAL PROPERTY GMBH, priority 2010, dated 2015).

Legend:
Type in all cases: in vivo
[1] = test system: larvae of the mustard beetle (Phaedon cochleariae); test: Phaedon test (PHAECO spray treatment); conditions: for activity (beetle larvae killed) / pest or weed control at 500 g/ha: 500 g/ha, spray, after 7 days; for pest or weed control at 500 g/ha: Phaedon cochleariae, 168 h, read-out: activity (beetle larvae killed)
Experimental: Phaedon Test ([…] Spray Treatment) Solvents: 78.0 parts by weight of acetone • • 1.5 parts by weight of dimethylformamide Emulsifier: 0.5 part by weight of alkylaryl polyglycol ether To produce a suitable preparation of active compound, 1 part by weight of active compound is mixed with the stated amounts of solvents and emulsifiers, and the concentrate is diluted with emulsifier-containing water to the desired concentration. Discs of Chinese cabbage leaves (Brassica pekinensis) are sprayed with an active compound preparation of the desired concentration and, after drying, populated with larvae of the mustard beetle (Phaedon cochleariae).

Boophilus microplus = Boophilus microplus test (BOOPMI injection); conditions: 20 μg/animal, injection into the abdomen, after 7 days
Experimental: Boophilus microplus Test (BOOPMI Injection)
(§1) Solvent: Dimethyl Sulphoxide
To produce a suitable preparation of active compound, 10 mg of active compound are mixed with 0.5 ml of solvent and the concentrate is diluted with solvent to the desired concentration. The solution of active compound is injected into the abdomen (Boophilus microplus), and the animals are transferred into dishes and kept in a climatized room. The activity is assessed by […] of fertile eggs.
After 7 days, the effect in % is determined 100% means that none of the ticks has laid any fertile eggs.

Lucilia cuprina larvae = test: Lucilia cuprina test (LUCICU); conditions: 100 ppm, after 2 days
Experimental: Lucilia cuprina Test (LUCICU)
as §1
To produce a suitable preparation of active compound, 10 mg of active compound are mixed with 0.5 ml of dimethyl sulphoxide and the concentrate is diluted with water to the desired concentration. Vessels containing horsemeat treated with the active compound preparation of the desired concentration are populated with about 20 Lucilia cuprina larvae.
After 2 days, the kill in % is determined. 100% means that all larvae have been killed; 0% means that none of the larvae have been killed.

[2] = test system: caterpillars of the army worm (Spodoptera frugiperda); test: Spodoptera frugiperda test (SPODFR spray treatment); conditions: for activity (caterpillars killed) / pest or weed control at 500 g/ha: 500 g/ha, spray, after 7 days; for pest or weed control at 500 g/ha: Spodoptera frugiperda, 168 h, read-out: activity (caterpillars killed)
Experimental: Spodoptera frugiperda Test (SPODFR Spray Treatment) Solvents: 78.0 parts by weight of acetone • • 1.5 parts by weight of dimethylformamide Emulsifier: 0.5 part by weight of alkylaryl polyglycol ether
(§2) To produce a suitable preparation of active compound, 1 part by weight of active compound is mixed with the stated amounts of solvents and emulsifier, and the concentrate is diluted with emulsifier-containing water to the desired concentration.
Discs of maize leaves (Zea mays) are sprayed with an active compound preparation of the desired concentration and, after drying, populated with caterpillars of the army worm (Spodoptera frugiperda) besetzt.
After 7 days, the activity in % is determined. 100% means that all caterpillars have been killed; 0% means that none of the caterpillars have been killed.

[3] = test system: green peach aphid (Myzus persicae); test: Myzus test (MYZUPE spray treatment); conditions: for activity (aphids killed) / pest or weed control at 500 g/ha: 500 g/ha, spray, after 6 days; for pest or weed control at 500 g/ha: Myzus persicae, 144 h, read-out: activity (aphids killed)
Experimental: Myzus Test (MYZUPE Spray Treatment) Solvents: 78 parts by weight of acetone • • 1.5 parts by weight of dimethylformamide Emulsifier: 0.5 part by weight of alkylaryl polyglycol ether
as §2
Discs of Chinese cabbage leaves (Brassica pekinensis) which are infested by all stages of the green peach aphid (Myzus persicae) are sprayed with an active compound preparation of the desired concentration.
After 6 days, the activity in % is determined. 100% means that all aphids have been killed; 0% means that none of the aphids have been killed.

[4] = test system: greenhouse red spider mite (Tetranychus urticae); test: Tetranychus test; OP-resistant (TETRUR spray treatment); conditions: for activity (spider mites killed) / pest or weed control at 500 g/ha: 500 g/ha, spray, after 6 days; for pest or weed control at 500 g/ha: Tetranychus urticae, 144 h, read-out: activity (spider mites killed)
Experimental: Tetranychus Test; OP-Resistant (TETRUR Spray Treatment) Solvents: 78.0 parts by weight of acetone • • 1.5 parts by weight of dimethylformamide Emulsifier: 0.5 part by weight of alkylaryl polyglycol ether
as §2
Discs of bean leaves (Phaseolus vulgaris) infested by all stages of the greenhouse red spider mite (Tetranychus urticae) are sprayed with an active compound preparation of the desired concentration.
After 6 days, the activity in % is determined. 100% means that all spider mites have been killed; 0% means that none of the spider mites have been killed.

Ctenocephalides felis = Ctenocephalides felis oral test (CTECFE); conditions: 100 ppm in citrated cattle blood, after two days
Experimental: Ctenocephalides Felis Oral Test (CTECFE)
Solvent: 1 Part by Weight of Dimethyl Sulphoxide
To produce a suitable preparation of active compound, 10 mg of active compound are mixed with 0.5 ml of dimethyl sulphoxide. Part of the concentrate is diluted with citrated cattle blood, and the desired concentration is prepared.
About 20 unfed adult fleas (Ctenocephalides felis) are placed into a chamber which is closed at the top and bottom with gauze. A metal cylinder whose bottom end is closed with parafilm is placed onto the chamber. The cylinder contains the blood/active compound preparation, which can be taken up by the fleas through the parafilm membrane. After two days, the kill in % is determined 100% means that all fleas have been killed; 0% means that none of the fleas have been killed.

[5] = test system: cat fleas (Ctenocephalides felis, fully sensitive laboratory strain); test: Contact test against fleas in-vitro (CTECFE contact); conditions: for activity against cat fleas: 500 g/ha, after 48 h
Experimental: Contact Test Against Fleas In-Vitro (CTECFE Contact)
An amount of 0.9 mg of active compound is weighed out, and 1 ml of acetone is added.
Of this acetone solution, either […] are transferred directly into roll-necked test tubes or an aliquot is diluted with 4 parts of acetone 1:5. For its part, 250 μl of this dilution are pipetted into roll-necked test tubes, or the dilution is diluted further, etc., until the desired number of dilution steps is reached.
The roll-necked test tubes containing the solution of the active compound in acetone are immediately coated in a fume cupboard by 2 h of swing rotation at 30 rpm. After evaporation of the solvent, the active compound contained in the acetone gives, at the highest concentration tested, an active compound content of 500 g/ha (or 500 μg/dm^2) on the surface of the test tube.
10-20 Adult cat fleas (Ctenocephalides felis, fully sensitive laboratory strain) anesthetized with CO2 are transferred into the test tubes prepared in this manner, and the test tubes are closed with a plastic roll-necked lid provided with fine holes.
The test tubes are stored vertically at room temperature and humidity for 24 or 48 h. After 24 and 48 h, the activity of the active compound applied is determined by comparison with an acetone-treated control. Here, an observed normal activity for all fleas corresponds to 0% activity, a strongly restricted or uncoordinated (knock-down) movement or death of all fleas corresponds to 100% activity.

[6] = test system: Anopheles gambiae (homocygus kdr); test: Anopheles test (ANPHGB surface treatment); conditions: for knock-down activity: 100 mg/m^2, two hours after contact, exposition 30 minutes; for mortality at 100 mg/m2: Anopheles gambiae, read-out: activity (mortality in %)
Experimental: Anopheles Test (ANPHGB Surface Treatment) Solvent: Acetone
(§3) To produce a suitable preparation of active compound, the active compound is dissolved in acetone (2 mg/ml). The active compound preparation is pipetted onto a glazed tile and, after drying, adult mosquitoes of the species Anopheles gambiae (homocygus kdr) are placed onto the treated tile. The exposition time is 30 minutes.
(§4) Two hours after contact to the treated surface, the knock-down proportion of the test animals in % is determined.
24 hours after contact to the treated surface, the mortality in % is determined. Here, 100% means that all mosquitoes have been killed; 0% means that none of the mosquitoes has been killed.

Aedes aegypti = test: Aedes test (AEDSAE surface treatment); conditions: for knock-down activity: 100 mg/m^2, two hours after contact, exposition 30 minutes
Experimental: Aedes Test (AEDSAE Surface Treatment)
as §3, with “Aedes aegypti” for “Anopheles gambiae (homocygus kdr)”
as §4
24 hours after contact to the treated surface, the mortality in % is determined Here, 100% means that all mosquitoes have been killed; 0% means that none of the mosquitoes has been killed.

[7] = active compound concentration 500 g/ha
[8] = active compound concentration 100 g/ha

Row | Compound | activity (beetle larvae killed) [1] | activity (100% = none of the ticks has laid any fertile eggs) (Boophilus microplus) | activity (kill in %) (Lucilia cuprina larvae) | activity (caterpillars killed) [2] | activity (aphids killed) [3] | activity (spider mites killed) [4] | activity (kill in %) (Ctenocephalides felis) | activity against cat fleas [5] | knock-down activity [6] | other results
1 | CC1C(=CSc2ccccc2)C(=Nc2ccc(F)cc2)c2ccccc21 (mixture of isomers) [Example 1-6] | 100% | 100% | 100% | 100% | 100% | 100% | 100% | 100% | – | –
2 | Cc1ccc(N=C2C(=CSc3ccccc3)C(c3ccccc3)c3ccccc32)cc1 (mixture of isomers) [Example 1-20] | 100% | 100% | – | 100% | 100% | 100% | – | 100% | – | –
3 | Cc1ccc(N=C2C(=CSc3ccc(F)cc3)C(C)c3cc(F)ccc32)cc1C (mixture of isomers) [Example 1-63] | 100% | 100% | – | 100% | 100% | 100% | 90% | 100% | – | –
4 | Cc1ccc(N=C2C(=CSc3ccc(F)cc3)C(C)c3cc(C)ccc32)c(C)c1 (mixture of isomers) [Example 1-85] | 100% | 100% | 100% | 100% | 100% | 100% | 90% | 100% | 100% | –
5 | Fc1ccc(N=C2/C(=C/Sc3ccccc3)CCc3ccccc32)cc1 [Example 1-3, 4-Fluoro-N-[(2E)-2-[(phenylsulphanyl)methylene]-3,4-dihydronaphthalen-1(2H)-ylidene]aniline] | – | 100% | 100% | – | – | – | 90% | 100% | 80% | pest or weed control at 500 g/ha [1]: 100%; mortality at 100 mg/m2 [6]: 100%; pest or weed control at 500 g/ha [2]: 100%; pest or weed control at 500 g/ha [3]: 100%; pest or weed control at 500 g/ha [4]: 100%
6 | COc1ccc2c(c1)CCC(=CSc1ccc(F)cc1)C2=Nc1ccc(C)cc1 [Example 1-17] | 100% | – | – | 100% | 100% | 100% | – | 100% | 95% | knock-down activity (Aedes aegypti): 100%
7 | Cc1ccc(N=C2C(=CSc3ccc(F)cc3)C(C)(C)c3ccccc32)cc1 [Example 1-21] | – | – | – | – | – | – | – | 100% | – | pest or weed control at 500 g/ha [1]: 100%; Kill rate in % after 7 days [1, 7]: 100%; mortality at 100 mg/m2 (Aedes aegypti; Aedes aegypti, read-out: activity (mortality in %)): 100%; mortality at 100 mg/m2 [6]: 100%; Kill rate in % after 24 hours ([6]; active compound concentration 8 g/ha): 100%; pest or weed control at 500 g/ha [2]: 100%; Kill rate in % after 7 days [2, 8]: 83%; pest or weed control at 500 g/ha [3]: 100%; Kill rate in % after 6 days [3, 8]: 100%; Kill rate in % after 6 days [3, 7]: 100%; pest or weed control at 500 g/ha [4]: 100%; Kill rate in % after 6 days [4, 8]: 100%; Kill rate in % after 6 days [4, 7]: 100%; Kill rate in % after 2 days ([5]; active compound concentration 0.032 g/ha): 100%; Kill rate in % after 2 days ([5]; active compound concentration 0.16 g/ha): 100%
8 | CCc1ccc(N=C2C(=CSc3ccc(F)cc3)CCc3ccccc32)cc1 [Example 1-39] | 100% | – | – | 100% | 100% | 80% | – | 100% | 100% | knock-down activity (Aedes aegypti): 100%
9 | Cc1ccc(N=C2C(=CSc3ccccc3Cl)CCc3ccccc32)cc1 [Example 1-69] | 100% | 100% | 100% | 100% | 90% | 100% | 100% | 100% | 90% | –
10 | Cc1ccc(N=C2C(=CSc3cc(F)cc(F)c3)CCc3ccccc32)cc1 [Example 1-81] | 100% | 100% | 100% | 100% | 100% | 100% | 100% | 100% | 100% | –
11 | CCc1ccc2c(c1)CCC(=CSc1ccc(F)cc1)C2=Nc1ccc(C)cc1 [Example 1-84] | 100% | – | – | 100% | 100% | 100% | – | 100% | 100% | knock-down activity (Aedes aegypti): 100%
